Experimental findings from article PMC3901304 (ACS medicinal chemistry letters, 2013) are described below.

The assay concerns T. gondii cells in culture. The assay is described as follows: Toxoplasma cell culture study. The settings on record: for T. gondii in cells at Day 4: no drug control 1140000; for T. gondii in media at Day 4: no drug control 3710000. The assay is classed as cell-based, Toxoplasma gondii.

Take `Nc1nc2[nH]c3cccc(Sc4ccccc4)c3c2c(=O)[nH]1` [Compound 2]: under “compound at 5 μM”, the “T. gondii in cells at Day 4” value worked out at 140000 and the “T. gondii in media at Day 4” value turned out to be 100000.
Turning to `CCc1nc(N)nc(N)c1-c1ccc(Cl)cc1` [PM, pyrimethamine, reference compound], under “PM at 3 μM”, the “T. gondii in cells at Day 4” value was below 2500 and the “T. gondii in media at Day 4” value is listed as below 25000.
Take `Nc1nc2[nH]c3cccc(Sc4cccc5ccccc45)c3c2c(=O)[nH]1` [Compound 3]: the “effect on T. gondii in culture compared with PM” value (3 at 5 μM versus PM at 3 μM) was “equivalent to PM at 3 μM”. Further, under “compound at 5 μM”, the “T. gondii in cells at Day 4” value is reported as below 2500 and the “T. gondii in media at Day 4” value is given as below 25000.
Turning to `Nc1nc2[nH]c3cccc(Sc4ccc5ccccc5c4)c3c2c(=O)[nH]1` [Compound 1], for the setting “compound at 5 μM”, the “T. gondii in cells at Day 4” value was 340000 and the “T. gondii in media at Day 4” value turned out to be 2350000.
